In patent US20030220402A1, “Cancer remedy comprising anthranilic acid derivatives as active ingredients” (priority 2000, published 2003):

System: L929 cells
Test: Measurement of cytotoxicity using mouse tumorous cells L929 (Neutral Red assay)
Assay type: cell-based
Conditions: 3 days culture, concentration manifesting 50% cytotoxicity
Procedure: Measurement of Cytotoxicity Using Mouse Tumorous Cells L929
The cytotoxic activity against tumorous cells was measured according to a Neutral Red assay method [the method described in Journal of Tissue Culture Methodology, vol. 9, p. […] 24, p. […] Namely, 100 μL each of L929 cells (5×10^4 cells/mL, 10% FCS/RPM1) was added to a 96-well ELISA plate, and the cells were cultured overnight. The test compound at each measuring concentration was dissolved in a DMSO solution and added, and culturing was further continued for 3 days. To the cultured cells, was then added 2.0 μL of Neutral Red so as to provide the final concentration of 0.01%. Incubation was conducted at 37° C. for 1 hour, and the cell culture supernatant was removed. The resultant cultured cells were washed with […] of PBS twice to remove the excessive Neutral Red. To the washed cells, was then added 100 μL of a 50% ethanol-1% aqueous acetic acid. The dye incorporated in the cells was extracted, and the amount of the dye was determined by measuring the absorbance at 490 nm. The case where a drug was not added was taken as 100%, and the cytotoxicity was determined at the concentrations of the respective test compounds. […] The measurements under the same conditions in two sets each were made, and the data were, obtained from the average values.

| SMILES | LD50 [µM] |
| --- | --- |
| O=C(Cc1ccc(Oc2ccc3ccccc3c2)cc1)Nc1ccccc1C(=O)O [Compound No. 59, 2-(4-(2-naphthyloxy)phenylacetamido)benzoic acid] | 1.6 |
| COC(=O)c1ccccc1NC(=O)Cc1ccc(Oc2ccc(O)cc2)cc1 [Compound No. 296, methyl 2-(4-(4-hydroxyphenoxy)phenylacetamido)benzoate] | >5 |
| O=C(Cc1ccc(Oc2ccc(OCc3ccccc3)cc2)cc1)Nc1ccccc1C(=O)O [Compound No. 316, 2-(4-(4-benzyloxyphenoxy)phenylacetamido)benzoic acid] | 0.60 |
| O=C(Cc1ccc(Oc2ccc(OC3CCCCC3)cc2)cc1)Nc1ccccc1C(=O)O [compound 288, 2-(4-(4-cyclohexyloxyphenoxy)phenylacetamido)benzoic acid] | 0.20 |
